Laboratory results taken from patent publication US12577245B2, “Sulfonyl benzamide derivatives as Bcl-2 inhibitors” (ASCENTAGE PHARMA (SUZHOU) CO., LTD., priority 2021, dated 2026).

Legend:
Bcl-2 WT = Bcl-2 WT (Homo sapiens, UniProt P10415); experiment: Bcl-2 WT inhibition, fluorescence polarization (Flu-BIM tracer) binding assay; conditions: FP; 20 nM Bcl2, 5 nM Flu-BIM, 1 h incubation; read-out: Bcl-2 w.t. (FP)
MV-4-11 cells = experiment: CCK-8 cell viability assay in MV-4-11 cells; type: cell-based; conditions: Homo sapiens, MV4-11, 72 h, 10% FBS, 3 days
Summary of the method: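 IC50 values come from vehicle-normalized CCK-8 absorbance at 450 nm, read 1–4 h after reagent addition. Before that, MV-4-11 cells seeded at 20000 per well were cultured 3 days at 37 °C with a compound dilution series.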

RS4; 11Bcl-2-G101V cells = experiment: CellTiter-Glo (CTG) cell viability assay in RS4;11-Bcl-2-G101V cells; type: cell-based; conditions: 72 h, 10% FBS, 3 days
Summary of the method: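 Luminescent ATP read-out (CellTiter-Glo) after 3-day compound treatment at 37 °C gave viability relative to vehicle, from which IC50 was fitted. Mutant Bcl-2 RS4;11 cells were seeded at 10000 per well and rested 4 h before dosing.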

Chain of Bcl-2 WT (P10415 whole entry): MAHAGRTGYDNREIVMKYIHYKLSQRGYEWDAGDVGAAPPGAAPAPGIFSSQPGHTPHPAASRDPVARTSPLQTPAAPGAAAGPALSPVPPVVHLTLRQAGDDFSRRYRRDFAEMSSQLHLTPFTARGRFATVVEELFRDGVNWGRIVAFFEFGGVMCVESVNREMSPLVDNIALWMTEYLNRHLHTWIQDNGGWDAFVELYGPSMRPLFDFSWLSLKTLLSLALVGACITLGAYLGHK

## CC1(C)CCC(CN2CCN(c3ccc(C(=O)NS(=O)(=O)c4ccc(NC[C@H]5CC[C@](C)(O)CC5)c([N+](=O)[O-])c4)c(Oc4cnc5[nH]ccc5c4)c3)CC2)=C(c2cc(CN3CCOCC3)cs2)C1 [Example 24, 2-((1H-pyrrolo[2,3-b]pyridin-5-yl)oxy)-4-(4-((4,4-dimethyl-2-(4-(morpholinomethyl)thiophen-2-yl)cyclohex-1-en-1-yl)methyl)piperazin-1-yl)-N-((4-((((1r,4r)-4-hydroxy-4-methylcyclohexyl)methyl)amino)-3-nitrophenyl)sulfonyl)benzamide]
Bcl-2 WT
  IC50: 15.9 nM
MV-4-11 cells
  IC50: 40 nM
RS4; 11Bcl-2-G101V cells
  IC50: 340 nM

## CC1(C)CCC(CN2CCN(c3ccc(C(=O)NS(=O)(=O)c4ccc(NCC5CCOCC5)c([N+](=O)[O-])c4)c(Oc4cnc5[nH]ccc5c4)c3)CC2)=C(c2ccsc2CN2CCOCC2)C1 [Example 25, 2-((1H-pyrrolo[2,3-b]pyridin-5-yl)oxy)-4-(4-((4,4-dimethyl-2-(2-(morpholinomethyl)thiophen-3-yl)cyclohex-1-en-1-yl)methyl)piperazin-1-yl)-N-((3-nitro-4-(((tetrahydro-2H-pyran-4-yl)methyl)amino)phenyl)sulfonyl)benzamide]
Bcl-2 WT
  IC50: 25.4 nM
MV-4-11 cells
  IC50: 225 nM
RS4; 11Bcl-2-G101V cells
  IC50: 1810 nM

## CC1(C)CCC(CN2CCN(c3ccc(C(=O)NS(=O)(=O)c4ccc(NCC5CCOCC5)c([N+](=O)[O-])c4)c(Oc4cnc5[nH]ccc5c4)c3)CC2)=C(c2ccc(CN3CCOCC3)s2)C1 [Example 26, 2-((1H-pyrrolo[2,3-b]pyridin-5-yl)oxy)-4-(4-((4,4-dimethyl-2-(5-(morpholinomethyl)thiophen-2-yl)cyclohex-1-en-1-yl)methyl)piperazin-1-yl)-N-((3-nitro-4-(((tetrahydro-2H-pyran-4-yl)methyl)amino)phenyl)sulfonyl)benzamide]
Bcl-2 WT
  IC50: 26.4 nM
MV-4-11 cells
  IC50: 246 nM
RS4; 11Bcl-2-G101V cells
  IC50: 2590 nM

## CC1(C)CCC(CN2CCN(c3ccc(C(=O)NS(=O)(=O)c4ccc(NC[C@H]5COCCO5)c([N+](=O)[O-])c4)c(Oc4cnc5[nH]ccc5c4)c3)CC2)=C(c2cc(CN3CCC(N4CCOCC4)CC3)cs2)C1 [Example 28, (S)—N-((4-(((1,4-dioxan-2-yl)methyl)amino)-3-nitrophenyl)sulfonyl)-2-((1H-pyrrolo[2,3-b]pyridin-5-yl)oxy)-4-(4-((4,4-dimethyl-2-(4-((4-morpholinopiperidin-1-yl)methyl)thiophen-2-yl)cyclohex-1-en-1-yl)methyl)piperazin-1-yl)benzamide]
Bcl-2 WT
  IC50: 20.7 nM
MV-4-11 cells
  IC50: 276 nM
RS4; 11Bcl-2-G101V cells
  IC50: 1210 nM

## C[C@@H]1CN(Cc2csc(C3=C(CN4CCN(c5ccc(C(=O)NS(=O)(=O)c6ccc(NC[C@H]7COCCO7)c([N+](=O)[O-])c6)c(Oc6cnc7[nH]ccc7c6)c5)CC4)CCC(C)(C)C3)c2)C[C@H](C)N1C [Example 29, N-((4-((((S)-1,4-dioxan-2-yl)methyl)amino)-3-nitrophenyl)sulfonyl)-2-((1H-pyrrolo[2,3-b]pyridin-5-yl)oxy)-4-(4-((4,4-dimethyl-2-(4-(((3S,5R)-3,4,5-trimethylpiperazin-1-yl)methyl)thiophen-2-yl)cyclohex-1-en-1-yl)methyl)piperazin-1-yl)benzamide]
Bcl-2 WT
  IC50: 26.7 nM
MV-4-11 cells
  IC50: 422 nM
RS4; 11Bcl-2-G101V cells
  IC50: 750 nM

## CC1(C)CCC(CN2CCN(c3ccc(C(=O)NS(=O)(=O)c4ccc(NC[C@H]5COCCO5)c([N+](=O)[O-])c4)c(Oc4cnc5[nH]ccc5c4)c3)CC2)=C(c2cc(CN3CCN4CCOC[C@H]4C3)cs2)C1 [Example 30, N-((4-((((S)-1,4-dioxan-2-yl)methyl)amino)-3-nitrophenyl)sulfonyl)-2-((1H-pyrrolo[2,3-b]pyridin-5-yl)oxy)-4-(4-((2-(4-(((R)-hexahydropyrazino[2,1-c][1,4]oxazin-8(1H)-yl)methyl)thiophen-2-yl)-4,4-dimethylcyclohex-1-en-1-yl)methyl)piperazin-1-yl)benzamide]
Bcl-2 WT
  IC50: 23.6 nM
MV-4-11 cells
  IC50: 564 nM
RS4; 11Bcl-2-G101V cells
  IC50: 1440 nM

## CC1(C)CCC(CN2CCN(c3ccc(C(=O)NS(=O)(=O)c4ccc(NC[C@H]5COCCO5)c([N+](=O)[O-])c4)c(Oc4cnc5[nH]ccc5c4)c3)CC2)=C(c2cc(CN3CCN(C4COC4)CC3)cs2)C1 [Example 31, (S)—N-((4-(((1,4-dioxan-2-yl)methyl)amino)-3-nitrophenyl)sulfonyl)-2-((1H-pyrrolo[2,3-b]pyridin-5-yl)oxy)-4-(4-((4,4-dimethyl-2-(4-((4-(oxetan-3-yl)piperazin-1-yl)methyl)thiophen-2-yl)cyclohex-1-en-1-yl)methyl)piperazin-1-yl)benzamide]
Bcl-2 WT
  IC50: 26 nM
MV-4-11 cells
  IC50: 147 nM
RS4; 11Bcl-2-G101V cells
  IC50: 880 nM

## CC1(C)CCC(CN2CCN(c3ccc(C(=O)NS(=O)(=O)c4ccc(NC[C@H]5COCCO5)c([N+](=O)[O-])c4)c(Oc4cnc5[nH]ccc5c4)c3)CC2)=C(c2cc(CN3CCC(F)(F)CC3)cs2)C1 [Example 32, (S)—N-((4-(((1,4-dioxan-2-yl)methyl)amino)-3-nitrophenyl)sulfonyl)-2-((1H-pyrrolo[2,3-b]pyridin-5-yl)oxy)-4-(4-((2-(4-((4,4-difluoropiperidin-1-yl)methyl)thiophen-2-yl)-4,4-dimethylcyclohex-1-en-1-yl)methyl)piperazin-1-yl)benzamide]
Bcl-2 WT
  IC50: 15.9 nM
MV-4-11 cells
  IC50: 80 nM
RS4; 11Bcl-2-G101V cells
  IC50: 560 nM

## CC1(C)CCC(CN2CCN(c3ccc(C(=O)NS(=O)(=O)c4ccc(NC[C@H]5COCCO5)c([N+](=O)[O-])c4)c(Oc4cnc5[nH]ccc5c4)c3)CC2)=C(c2cc(-c3ccc(F)cc3)cs2)C1 [Example 33, (S)—N-((4-(((1,4-dioxan-2-yl)methyl)amino)-3-nitrophenyl)sulfonyl)-2-((1H-pyrrolo[2,3-b]pyridin-5-yl)oxy)-4-(4-((2-(4-(4-fluorophenyl)thiophen-2-yl)-4,4-dimethylcyclohex-1-en-1-yl)methyl)piperazin-1-yl)benzamide]
Bcl-2 WT
  IC50: 23.9 nM
MV-4-11 cells
  IC50: 6 nM
RS4; 11Bcl-2-G101V cells
  IC50: 630 nM

## CC1(C)CCC(CN2CCN(c3ccc(C(=O)NS(=O)(=O)c4ccc(NCC5CCOCC5)c([N+](=O)[O-])c4)c(Oc4cnc5[nH]ccc5c4)c3)CC2)=C(c2cc(-c3ccccc3)cs2)C1 [Example 34, 2-((1H-pyrrolo[2,3-b]pyridin-5-yl)oxy)-4-(4-((4,4-dimethyl-2-(4-phenylthiophen-2-yl)cyclohex-1-en-1-yl)methyl)piperazin-1-yl)-N-((3-nitro-4-(((tetrahydro-2H-pyran-4-yl)methyl)amino)phenyl)sulfonyl)benzamide]
Bcl-2 WT
  IC50: 41.1 nM
MV-4-11 cells
  IC50: 18 nM
RS4; 11Bcl-2-G101V cells
  IC50: 1460 nM

## CC1(C)CCC(CN2CCN(c3ccc(C(=O)NS(=O)(=O)c4ccc(NCC5CCOCC5)c([N+](=O)[O-])c4)c(Oc4cnc5[nH]ccc5c4)c3)CC2)=C(c2ccsc2-c2ccccc2)C1 [Example 35, 2-((1H-pyrrolo[2,3-b]pyridin-5-yl)oxy)-4-(4-((4,4-dimethyl-2-(2-phenylthiophen-3-yl)cyclohex-1-en-1-yl)methyl)piperazin-1-yl)-N-((3-nitro-4-(((tetrahydro-2H-pyran-4-yl)methyl)amino)phenyl)sulfonyl)benzamide]
Bcl-2 WT
  IC50: 40.4 nM
MV-4-11 cells
  IC50: 799 nM
RS4; 11Bcl-2-G101V cells
  IC50: 6160 nM

## CC1(C)CCC(CN2CCN(c3ccc(C(=O)NS(=O)(=O)c4ccc(NC[C@H]5CC[C@@](C)(O)CC5)c([N+](=O)[O-])c4)c(Oc4cnc5[nH]ccc5c4)c3)CC2)=C(c2cc(-c3ccc(F)cc3)cs2)C1 [Example 36, 2-((1H-pyrrolo[2,3-b]pyridin-5-yl)oxy)-4-(4-((2-(4-(4-fluorophenyl)thiophen-2-yl)-4,4-dimethylcyclohex-1-en-1-yl)methyl)piperazin-1-yl)-N-((4-((((1s,4s)-4-hydroxy-4-methylcyclohexyl)methyl)amino)-3-nitrophenyl)sulfonyl)benzamide]
Bcl-2 WT
  IC50: 36.3 nM
MV-4-11 cells
  IC50: 36 nM
RS4; 11Bcl-2-G101V cells
  IC50: 570 nM

## CC1(C)CCC(CN2CCN(c3ccc(C(=O)NS(=O)(=O)c4ccc(NC[C@H]5CC[C@](C)(O)CC5)c([N+](=O)[O-])c4)c(Oc4cnc5[nH]ccc5c4)c3)CC2)=C(c2cc(-c3ccc(F)cc3)cs2)C1 [Example 37, 2-((1H-pyrrolo[2,3-b]pyridin-5-yl)oxy)-4-(4-((2-(4-(4-fluorophenyl)thiophen-2-yl)-4,4-dimethylcyclohex-1-en-1-yl)methyl)piperazin-1-yl)-N-((4-((((1r,4r)-4-hydroxy-4-methylcyclohexyl)methyl)amino)-3-nitrophenyl)sulfonyl)benzamide]
Bcl-2 WT
  IC50: 20.5 nM
MV-4-11 cells
  IC50: 11 nM
RS4; 11Bcl-2-G101V cells
  IC50: 290 nM

## CC1(C)CCC(CN2CCN(c3ccc(C(=O)NS(=O)(=O)c4ccc(NC[C@H]5COCCO5)c([N+](=O)[O-])c4)c(Oc4cnc5[nH]ccc5c4)c3)CC2)=C(c2cc(-c3ccc(Cl)cc3)cs2)C1 [Example 38, (S)—N-((4-(((1,4-dioxan-2-yl)methyl)amino)-3-nitrophenyl)sulfonyl)-2-((1H-pyrrolo[2,3-b]pyridin-5-yl)oxy)-4-(4-((2-(4-(4-chlorophenyl)thiophen-2-yl)-4,4-dimethylcyclohex-1-en-1-yl)methyl)piperazin-1-yl)benzamide]
Bcl-2 WT
  IC50: 20.2 nM
MV-4-11 cells
  IC50: 28 nM
RS4; 11Bcl-2-G101V cells
  IC50: 1640 nM

## CC(C)c1ccccc1-c1csc(C2=C(CN3CCN(c4ccc(C(=O)NS(=O)(=O)c5ccc(NC[C@H]6COCCO6)c([N+](=O)[O-])c5)c(Oc5cnc6[nH]ccc6c5)c4)CC3)CCC(C)(C)C2)c1 [Example 39, (S)—N-((4-(((1,4-dioxan-2-yl)methyl)amino)-3-nitrophenyl)sulfonyl)-2-((1H-pyrrolo[2,3-b]pyridin-5-yl)oxy)-4-(4-((2-(4-(2-isopropylphenyl)thiophen-2-yl)-4,4-dimethylcyclohex-1-en-1-yl)methyl)piperazin-1-yl)benzamide]
Bcl-2 WT
  IC50: 31.6 nM
MV-4-11 cells
  IC50: 260 nM
RS4; 11Bcl-2-G101V cells
  IC50: 2310 nM
